Measured values published in publication PMC8274934, “FisB relies on homo-oligomerization and lipid binding to catalyze membrane fission in bacteria” (PLoS Biology, 2021).
Where a chain is given by its changes, count along the chain named.

What was measured:
[1] = molecular target: His6-FisB ECD (recombinant soluble extracytoplasmic domain of fission protein B, wild type) (B. subtilis); experiment: negative-stain electron microscopy; high molecular weight SEC fractions on carbon-coated grids, 2% uranyl acetate
iFluor555-FisB ECD [2] = molecular target: T1, iFluor555-FisB ECD (Bacillus subtilis, UniProt O32131, G123C); experiment: liposome co-flotation, fluorescence of gel band; assay type: binding; conditions: apparent, in total lipid concentration, 55% PC, 100 nM labelled protein, room temperature, 1 h
T1 construct: iFluor555-maleimide on G123C; forms soluble oligomers
T1 sequence (O32131 39-254 G123C limits assumed): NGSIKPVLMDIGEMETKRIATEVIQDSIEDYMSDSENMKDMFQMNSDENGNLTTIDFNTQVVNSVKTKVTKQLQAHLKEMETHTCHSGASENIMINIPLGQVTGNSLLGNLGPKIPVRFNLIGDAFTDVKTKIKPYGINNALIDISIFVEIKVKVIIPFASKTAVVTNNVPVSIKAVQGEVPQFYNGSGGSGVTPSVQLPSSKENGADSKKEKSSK

iFluor555-FisB ECD [3] = molecular target: T2, iFluor555-FisB ECD (Bacillus subtilis, UniProt O32131, G123C/K168D/K170E); experiment: liposome co-flotation, fluorescence of gel band; assay type: binding; conditions: apparent; in total lipid concentration; liposomes 45 mole % CL, 55% PC; 100 nM labelled protein; room temperature, 1 h; read-out: KdKK
T2 construct: iFluor555-maleimide on G123C; forms soluble oligomers
T2 sequence (O32131 39-254 G123C/K168D/K170E limits assumed): T1 sequence (O32131 39-254 G123C limits assumed) with K130D, K132E

Work on “His6-FisB ECD (recombinant soluble extracytoplasmic domain of fission protein B, wild type) (domain or fragment)” yielded a stoichiometry N [1] of 40 copies.
cardiolipin [CL] gave a Kd (iFluor555-FisB ECD [2]; liposomes 45 mole % CL) of 1 µM and a Kd (iFluor555-FisB ECD [3]) of 9.1 µM.
In the case of phosphatidylglycerol [PG], the Kd (iFluor555-FisB ECD [2]; liposomes 45 mole % PG) is reported as 3.6 µM.
